Results taken from patent publication US12275731B2, “Azaindole inhibitors of wild-type and mutant forms of LRRK2” (DANA-FARBER CANCER INSTITUTE, INC., priority 2018, dated 2025).

Assays:
Assay in all cases: KinomeScan profiling
Assay type in all cases: binding
FLT3(K663Q) = molecular target: T1, FLT3(K663Q) (Homo sapiens, UniProt P36888, K663Q); details: read-out: % control
T1 sequence (P36888 27-993 K663Q): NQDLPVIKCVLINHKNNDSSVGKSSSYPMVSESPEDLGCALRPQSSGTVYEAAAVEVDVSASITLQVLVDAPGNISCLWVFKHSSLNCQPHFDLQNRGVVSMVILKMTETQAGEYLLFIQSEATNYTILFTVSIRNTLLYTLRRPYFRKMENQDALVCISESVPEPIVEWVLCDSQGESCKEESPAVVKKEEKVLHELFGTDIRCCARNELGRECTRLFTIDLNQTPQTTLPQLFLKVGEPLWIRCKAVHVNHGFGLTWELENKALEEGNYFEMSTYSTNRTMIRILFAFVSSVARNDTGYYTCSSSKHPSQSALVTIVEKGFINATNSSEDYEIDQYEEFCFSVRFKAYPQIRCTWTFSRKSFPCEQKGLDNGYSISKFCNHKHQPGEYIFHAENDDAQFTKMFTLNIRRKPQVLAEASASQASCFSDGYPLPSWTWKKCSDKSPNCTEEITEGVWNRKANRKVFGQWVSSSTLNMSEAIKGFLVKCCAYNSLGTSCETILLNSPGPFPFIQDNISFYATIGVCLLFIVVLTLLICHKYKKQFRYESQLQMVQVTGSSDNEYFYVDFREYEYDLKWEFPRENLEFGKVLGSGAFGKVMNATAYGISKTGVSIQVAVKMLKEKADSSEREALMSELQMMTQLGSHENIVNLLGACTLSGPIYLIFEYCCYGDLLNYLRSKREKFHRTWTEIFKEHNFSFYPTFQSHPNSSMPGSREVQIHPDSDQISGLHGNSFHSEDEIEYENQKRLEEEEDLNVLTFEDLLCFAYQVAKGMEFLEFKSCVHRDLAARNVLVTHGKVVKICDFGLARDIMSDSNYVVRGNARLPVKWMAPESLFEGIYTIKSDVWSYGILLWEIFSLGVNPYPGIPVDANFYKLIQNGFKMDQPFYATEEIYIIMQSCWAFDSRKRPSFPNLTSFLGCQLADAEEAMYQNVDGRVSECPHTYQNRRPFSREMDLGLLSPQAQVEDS
Outline: (§1)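 Luminescence (RLU) was converted to percent of control, with DMSO set as 100% and a reference compound as 0%. Test compounds were run at 1 μM against 468 kinases. Kinases showing below 35% of control were scored as bound.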

PYK2 = PYK2 (Homo sapiens, UniProt Q14289); details: PYK2, 1 μM; read-out: % control
Outline: as §1

IRAK4 = molecular target: T2, IRAK4 (Homo sapiens, UniProt Q9NWZ3); details: IRAK4, 1 μM; read-out: % control
T2 construct: purchased KinomeScan®
T2 sequence (Q9NWZ3 1-460): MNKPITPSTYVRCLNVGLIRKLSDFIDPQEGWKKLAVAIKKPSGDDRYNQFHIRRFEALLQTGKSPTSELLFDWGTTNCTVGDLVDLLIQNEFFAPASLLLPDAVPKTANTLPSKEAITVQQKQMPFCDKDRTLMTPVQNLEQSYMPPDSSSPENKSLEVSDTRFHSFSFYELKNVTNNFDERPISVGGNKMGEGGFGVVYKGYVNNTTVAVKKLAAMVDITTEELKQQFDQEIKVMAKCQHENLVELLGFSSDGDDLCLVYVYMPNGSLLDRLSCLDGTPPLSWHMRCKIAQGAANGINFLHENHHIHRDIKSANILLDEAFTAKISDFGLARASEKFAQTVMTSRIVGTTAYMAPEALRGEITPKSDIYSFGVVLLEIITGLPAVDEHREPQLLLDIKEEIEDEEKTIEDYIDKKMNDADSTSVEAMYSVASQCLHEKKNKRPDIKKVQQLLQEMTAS
Outline: as §1

TAOK1 = molecular target: T3, TAOK1 (Homo sapiens, UniProt Q7L7X3); details: TAOK1, 1 μM; read-out: % control
T3 construct: purchased KinomeScan® (panel service)
T3 sequence (Q7L7X3 1-1001): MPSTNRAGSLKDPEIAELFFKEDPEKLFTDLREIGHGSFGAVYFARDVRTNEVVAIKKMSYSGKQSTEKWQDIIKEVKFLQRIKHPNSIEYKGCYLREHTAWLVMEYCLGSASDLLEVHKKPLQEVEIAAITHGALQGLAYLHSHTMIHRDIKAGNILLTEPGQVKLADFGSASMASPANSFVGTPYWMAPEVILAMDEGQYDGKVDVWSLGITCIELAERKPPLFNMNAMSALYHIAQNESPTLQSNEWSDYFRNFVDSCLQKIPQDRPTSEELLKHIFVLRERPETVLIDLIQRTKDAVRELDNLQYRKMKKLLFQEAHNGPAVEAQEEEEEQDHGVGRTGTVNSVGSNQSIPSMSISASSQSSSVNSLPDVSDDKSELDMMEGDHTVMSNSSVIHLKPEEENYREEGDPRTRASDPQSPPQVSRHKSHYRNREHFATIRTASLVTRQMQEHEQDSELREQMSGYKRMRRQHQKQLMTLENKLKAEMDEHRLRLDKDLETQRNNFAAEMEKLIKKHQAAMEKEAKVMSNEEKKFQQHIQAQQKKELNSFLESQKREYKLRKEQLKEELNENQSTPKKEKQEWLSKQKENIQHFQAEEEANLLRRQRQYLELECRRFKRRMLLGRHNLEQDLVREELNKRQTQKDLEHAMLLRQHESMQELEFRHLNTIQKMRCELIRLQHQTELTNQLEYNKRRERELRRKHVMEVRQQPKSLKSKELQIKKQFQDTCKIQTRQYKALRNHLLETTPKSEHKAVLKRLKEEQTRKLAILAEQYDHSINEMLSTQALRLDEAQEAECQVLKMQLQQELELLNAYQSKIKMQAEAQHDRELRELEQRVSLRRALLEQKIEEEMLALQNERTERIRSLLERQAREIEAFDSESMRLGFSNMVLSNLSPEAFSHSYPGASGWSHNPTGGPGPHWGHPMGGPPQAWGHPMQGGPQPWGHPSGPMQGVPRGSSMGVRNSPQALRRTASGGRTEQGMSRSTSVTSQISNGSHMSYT
Outline: as §1

Sequence of PYK2 (Q14289 whole entry): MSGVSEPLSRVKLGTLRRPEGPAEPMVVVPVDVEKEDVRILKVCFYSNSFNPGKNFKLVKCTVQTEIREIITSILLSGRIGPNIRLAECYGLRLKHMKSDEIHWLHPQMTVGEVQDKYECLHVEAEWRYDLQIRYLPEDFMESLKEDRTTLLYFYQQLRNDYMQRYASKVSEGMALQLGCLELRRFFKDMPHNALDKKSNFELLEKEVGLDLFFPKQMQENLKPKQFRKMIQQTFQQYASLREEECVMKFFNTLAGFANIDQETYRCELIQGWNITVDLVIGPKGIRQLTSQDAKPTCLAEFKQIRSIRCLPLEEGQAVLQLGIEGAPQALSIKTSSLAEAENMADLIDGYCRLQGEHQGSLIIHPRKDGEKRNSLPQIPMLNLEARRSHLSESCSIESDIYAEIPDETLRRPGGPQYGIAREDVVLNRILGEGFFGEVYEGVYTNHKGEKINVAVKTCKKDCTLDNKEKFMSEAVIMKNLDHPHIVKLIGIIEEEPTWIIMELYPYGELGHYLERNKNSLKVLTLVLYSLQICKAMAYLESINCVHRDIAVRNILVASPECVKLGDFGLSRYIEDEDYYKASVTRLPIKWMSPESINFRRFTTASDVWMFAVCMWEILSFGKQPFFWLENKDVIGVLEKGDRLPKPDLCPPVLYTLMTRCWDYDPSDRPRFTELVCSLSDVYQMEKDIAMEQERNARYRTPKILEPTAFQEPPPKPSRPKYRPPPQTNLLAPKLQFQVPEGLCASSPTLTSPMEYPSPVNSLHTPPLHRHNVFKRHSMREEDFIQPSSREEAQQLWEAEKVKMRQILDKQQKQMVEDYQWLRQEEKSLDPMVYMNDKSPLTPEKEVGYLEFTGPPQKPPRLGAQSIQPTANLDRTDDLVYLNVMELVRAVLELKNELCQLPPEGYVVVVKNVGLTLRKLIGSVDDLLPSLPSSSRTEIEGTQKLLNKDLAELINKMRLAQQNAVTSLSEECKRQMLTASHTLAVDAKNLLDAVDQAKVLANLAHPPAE

SMILES	remaining binding at 1 µM (FLT3(K663Q))	remaining binding at 1 µM (PYK2)	remaining binding at 1 µM (IRAK4)	remaining binding at 1 µM (TAOK1)
CNc1c(-c2cnn([C@H]3CCN(C(C)=O)C[C@@H]3F)c2)cnc2[nH]cc(Cl)c12 [Compound 77, 1-((3S,4S)-4-(4-(3-chloro-4-(methylamino)-1H-pyrrolo[2,3-b]pyridin-5-yl)-1H-pyrazol-1-yl)-3-fluoropiperidin-1-yl)ethan-1-one]	15%	89%	26%	100%
CNc1c(-c2ccc(C(=O)N3CCC(N4CCOCC4)CC3)cc2)cnc2[nH]cc(Cl)c12 [Compound 96, (4-(3-chloro-4-(methylamino)-1H-pyrrolo[2,3-b]pyridin-5-yl)phenyl)(4-morpholinopiperidin-1-yl)methanone]	15%	92%	62%	96%
O=C(c1ccc(-c2cnc3[nH]cc(Cl)c3c2NC2CCCC2)cc1)N1CCC(N2CCOCC2)CC1 [Compound 101, (4-(3-chloro-4-(cyclopentylamino)-1H-pyrrolo[2,3-b]pyridin-5-yl)phenyl)(4-morpholinopiperidin-1-yl)methanone]	28%	78%	100%	99%
